Consider 18 compounds from patent US20260001888A1, “PYRAZOLOPYRIMIDINE PDE9 INHIBITORS” (Merck Sharp & Dohme LLC, priority 2018, published 2026).

The target of this test is Human PDE9 (PDE9A2) (Homo sapiens (Human), UniProt O76083). As to the kind of experiment: PDE9 IMAP fluorescence polarization (FP) inhibition assay. Format: biochemical. Conditions: apparent inhibition constant; human PDE9A2, FAM-cGMP substrate 50 nM, room temperature. The protocol: The activity of the compounds in accordance with the present invention as PDE9 inhibitors may be readily determined without undue experimentation using a fluorescence polarization (FP) methodology that is well known in the art (Huang, W., et al., J. Biomol Screen, 2002, 7:215).
Human PDE9 (PDE9A2), sequence (O76083 other isoform, or with tags, fused parts or gaps): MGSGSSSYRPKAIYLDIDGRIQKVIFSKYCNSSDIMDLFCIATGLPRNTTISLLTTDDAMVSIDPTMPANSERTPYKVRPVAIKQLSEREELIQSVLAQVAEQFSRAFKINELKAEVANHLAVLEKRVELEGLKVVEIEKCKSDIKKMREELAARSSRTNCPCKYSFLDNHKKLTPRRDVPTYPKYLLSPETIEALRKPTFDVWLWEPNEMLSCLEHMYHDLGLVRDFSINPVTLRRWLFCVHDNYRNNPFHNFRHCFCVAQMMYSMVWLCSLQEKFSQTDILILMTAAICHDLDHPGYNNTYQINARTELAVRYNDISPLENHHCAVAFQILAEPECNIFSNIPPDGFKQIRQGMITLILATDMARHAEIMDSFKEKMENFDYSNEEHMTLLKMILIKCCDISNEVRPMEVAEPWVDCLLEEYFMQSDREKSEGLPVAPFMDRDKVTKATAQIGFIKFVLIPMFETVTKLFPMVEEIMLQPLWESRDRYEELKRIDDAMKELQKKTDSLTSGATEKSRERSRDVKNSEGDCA
In a typical experiment the PDE9 inhibitory activity of the compounds of the present invention was determined in accordance with the following experimental method.
Human PDE9 (PDE9A2, GenBank Accession No. NM_001001567), full length with N-terminal GST tag, was purchased from BPS Bioscience. The fluorescence polarization assay for cyclic nucleotide phosphodiesterases was performed using an IMAP® FP kit supplied by Molecular Devices, Sunnyvale, CA (product #R8139). IMAP® technology has been applied previously to phosphodiesterase assays (Huang, W., et al., J. Biomol Screen, 2002, 7:215). Assays were performed at room temperature in 384-well microtiter plates with an incubation volume of 20.2 μL. Solutions of test compounds were prepared in DMSO and serially diluted with DMSO to yield 8 μL of each of 10 solutions differing by 3-fold in concentration, at 32 serial dilutions per plate. 100% inhibition is determined using a known PDE9 inhibitor, such as 1-(2-chlorophenyl)-6-[(2R)-3,3,3-trifluoro-2-methylpropyl]-1,5-dihydro-4H-pyrazolo[3,4-d]pyrimidine-4-one (BAY 73-6691) (Wunder et al, Mol. Pharmacol., 2005, 68 (6): 1775-81), (6-[(3S,4S)-4-methyl-1-(pyrimidin-2-ylmethyl) pyrrolidin-3-yl]-1-(tetrahydro-2H-pyran-4-yl)-1,5-dihydro-4H-pyrazolo[3,4-d]pyrimidin-4-one (PF-04447943) (Wager et al., ACS Chemical Neuroscience, 2010, 1:435-449). 0% of inhibition is determined by using DMSO (1% final concentrations). A Labcyte Echo 555 (Labcyte, Sunnyvale, CA) is used to dispense 200 nL from each well of the titration plate to the 384 well assay plate. Human PDE9A2 membrane preps were diluted to 1 ng/ml. […] PDE9 enzyme mix and compounds were mixed and incubated at room temperature for 30 min. Following which, FAMcGMP substrate was added, shaken and incubated for an additional 60 min at room temperature. The final concentration of human PDE9 membrane preparations were 0.5 ng/ml. The final concentration of FAM-cGMP was 50 nM. After the incubation period, the enzymatic reaction was stopped by addition of binding solution (IMAP-FP, Molecular Devices, comprised of 80% Solution A, 20% Solution B and a 1:600 dilution of binding reagent) to each well. The plates were shaken then incubated at room temperature for 1 h prior to determining the fluorescence polarization (mP) using a Perkin Elmer En Vision™ plate reader (Waltham, MA).
Fluorescence polarization (mP) was calculated from the parallel(S) and perpendicular (P) fluorescence of each sample well and the analogous values for the median control well, containing only substrate (So and Po), using the following equation: […]
Dose-inhibition profiles for each compound were characterized by fitting the mP data to a four-parameter equation given below. The apparent inhibition constant (KI), the maximum inhibition at the low plateau relative to “100% Inhibition Control” (Imax; e.g. 1=>same as this control), the minimum inhibition at the high plateau relative to the “0% Inhibition Control” (Imin, e.g. 0=>same as the no drug control) and the Hill slope (nH) are determined by a non-linear least squares fitting of the mP values as a function of dose of the compound using an in-house software based on the procedures described by Mosser et al., JALA, 2003, 8:54-63, using the following equation: […]
An apparent (Km) for FAM-labeled […] of 150 nM was determined in separate experiments through simultaneous variation of substrate and selected drug concentrations.
In the case of `CC(c1ccc(C(F)(F)F)nc1)n1nc(C#N)c2c(=O)[nH]c(N(C)C(c3ncccn3)C3CC3)nc21` (single isomer, unassigned) [Example 26, 6-[[cyclopropyl(pyrimidin-2-yl)methyl]-methyl-amino]-4-oxo-1-[1-[6-(trifluoromethyl)-3-pyridyl]ethyl]-5H-pyrazolo[3,4-d]pyrimidine-3-carbonitrile], the Ki was determined as 52.9 nM.

Turning to `CCC(c1ncc(F)cn1)N(C)c1nc2c(c(C#N)nn2C(C)c2ccc(C(F)(F)F)nc2)c(=O)[nH]1` (single isomer, unassigned) [Example 75, 6-((1-(5-fluoropyrimidin-2-yl)propyl)(methyl)amino)-4-oxo-1-(1-(6-(trifluoromethyl)pyridin-3-yl)ethyl)-4,5-dihydro-1H-pyrazolo[3,4-d]pyrimidine-3-carbonitrile], the Ki amounted to 3.31 nM.

For the compound `CC(c1ccc(C(F)(F)F)nc1)n1nc(C#N)c2c(=O)[nH]c(CCc3ncccn3)nc21` (single isomer, unassigned) [Example 79, 4-oxo-6-(2-(pyrimidin-2-yl)ethyl)-1-(1-(6-(trifluoromethyl)pyridin-3-yl)ethyl)-4,5-dihydro-1H-pyrazolo[3,4-d]pyrimidine-3-carbonitrile], the Ki was determined as 3.96 nM.

On to `CC(C)C(c1ncccn1)N(C)c1nc2c(c(C#N)nn2C(C)c2ccc(C(F)(F)F)nc2)c(=O)[nH]1` (single isomer, unassigned) [Example 21, 6-[methyl-(2-methyl-1-pyrimidin-2-yl-propyl)amino]-4-oxo-1-[1-[6-(trifluoromethyl)-3-pyridyl]ethyl]-5H-pyrazolo[3,4-d]pyrimidine-3-carbonitrile], for which the Ki came out at 15.2 nM.

On to `CC(c1ccc(C(F)(F)F)nc1)n1nc(C#N)c2c(=O)[nH]c(N3CCC3c3ccc(F)cc3)nc21` (single isomer, unassigned) [Example 49, 6-[2-(4-fluorophenyl)azetidin-1-yl]-4-oxo-1-[1-[6-(trifluoromethyl)-3-pyridyl]ethyl]-5H-pyrazolo[3,4-d]pyrimidine-3-carbonitrile], for which the Ki was 22.7 nM.

Turning to `CC(c1ccc(C(F)(F)F)nc1)n1nc(C#N)c2c(=O)[nH]c(N3CCC3c3ccc(F)cc3)nc21` (single isomer, unassigned) [Example 57, 6-[2-(4-fluorophenyl)azetidin-1-yl]-4-oxo-1-[1-[6-(trifluoromethyl)-3-pyridyl]ethyl]-5H-pyrazolo[3,4-d]pyrimidine-3-carbonitrile], the Ki is 1.05 nM.

For the compound `CCC(c1ncc(C(F)F)cn1)N(C)c1nc2c(c(C#N)nn2C(C)c2ccc(C(F)(F)F)nc2)c(=O)[nH]1` (single isomer, unassigned) [Example 17, 6-[1-[5-(difluoromethyl)pyrimidin-2-yl]propyl-methyl-amino]-4-oxo-1-[1-[6-(trifluoromethyl)-3-pyridyl]ethyl]-5H-pyrazolo[3,4-d]pyrimidine-3-carbonitrile], the Ki came to 0.01 nM.

For the compound `CC(c1ncccn1)N(C)c1nc2c(c(C#N)nn2C(C)c2ccc(C(F)(F)F)nc2)c(=O)[nH]1` (single isomer, unassigned) [Example 6, 6-[methyl(1-pyrimidin-2-ylethyl)amino]-4-oxo-1-[1-[6-(trifluoromethyl)-3-pyridyl]ethyl]-5H-pyrazolo[3,4-d]pyrimidine-3-carbonitrile], the Ki was 6.21 nM.

Regarding `CCC(c1ncc(F)cn1)N(C)c1nc2c(c(C#N)nn2C(C)C2CCOCC2)c(=O)[nH]1` (single isomer, unassigned) [Example 37, 6-[1-(5-fluoropyrimidin-2-yl)propyl-methyl-amino]-4-oxo-1-(1-tetrahydropyran-4-ylethyl)-5H-pyrazolo[3,4-d]pyrimidine-3-carbonitrile], the Ki turned out to be 2.67 nM.

For `CCC(c1ncccn1)N(C)c1nc2c(c(C#N)nn2C(C)c2ccc(C(F)(F)F)cc2)c(=O)[nH]1` (single isomer, unassigned) [Example 14, 6-[methyl(1-pyrimidin-2-ylpropyl)amino]-4-oxo-1-[1-[4-(trifluoromethyl)phenyl]ethyl]-5H-pyrazolo[3,4-d]pyrimidine-3-carbonitrile], the Ki came to 0.01 nM.

In the case of `CCC(c1ncc(C(F)F)cn1)N(C)c1nc2c(c(C#N)nn2C(C)c2ccc(C(F)(F)F)nc2)c(=O)[nH]1` (single isomer, unassigned) [Example 18, 6-[1-[5-(difluoromethyl)pyrimidin-2-yl]propyl-methyl-amino]-4-oxo-1-[1-[6-(trifluoromethyl)-3-pyridyl]ethyl]-5H-pyrazolo[3,4-d]pyrimidine-3-carbonitrile], the Ki was determined as 2.07 nM.

Consider `CCC(c1ccc(F)cn1)N(C)c1nc2c(c(C#N)nn2C(C)c2ccc(C(F)(F)F)nc2)c(=O)[nH]1` (single isomer, unassigned) [Example 35, 6-[1-(5-fluoro-2-pyridyl)propyl-methyl-amino]-4-oxo-1-[1-[6-(trifluoromethyl)-3-pyridyl]ethyl]-5H-pyrazolo[3,4-d]pyrimidine-3-carbonitrile], for which the Ki came to 7.12 nM.

For the compound `CC(Cc1nc2c(c(C#N)nn2C(C)c2ccc(C(F)(F)F)nc2)c(=O)[nH]1)c1ncccn1` (single isomer, unassigned) [Example 83, 4-oxo-6-(2-(pyrimidin-2-yl)propyl)-1-(1-(6-(trifluoromethyl)pyridin-3-yl)ethyl)-4,5-dihydro-1H-pyrazolo[3,4-d]pyrimidine-3-carbonitrile], the Ki stood at 60.7 nM.

Take `CCC(c1ccc(F)cn1)N(C)c1nc2c(c(C#N)nn2C(C)c2ccc(C(F)(F)F)nc2)c(=O)[nH]1` (single isomer, unassigned) [Example 34, 6-[1-(5-fluoro-2-pyridyl)propyl-methyl-amino]-4-oxo-1-[1-[6-(trifluoromethyl)-3-pyridyl]ethyl]-5H-pyrazolo[3,4-d]pyrimidine-3-carbonitrile]: the Ki worked out at 0.16 nM.

In the case of `CC(c1ncccn1)N(C)c1nc2c(c(C#N)nn2C(C)c2ccc(C(F)(F)F)nc2)c(=O)[nH]1` (single isomer, unassigned) [Example 7, 6-[methyl(1-pyrimidin-2-ylethyl)amino]-4-oxo-1-[1-[6-(trifluoromethyl)-3-pyridyl]ethyl]-5H-pyrazolo[3,4-d]pyrimidine-3-carbonitrile], the Ki turned out to be 20.8 nM.

Take `CC(c1ccc(C(F)(F)F)nc1)n1nc(C#N)c2c(=O)[nH]c(N3CCC3c3ncccn3)nc21` (single isomer, unassigned) [Example 46, 4-oxo-6-(2-pyrimidin-2-ylazetidin-1-yl)-1-[1-[6-(trifluoromethyl)-3-pyridyl]ethyl]-5H-pyrazolo[3,4-d]pyrimidine-3-carbonitrile]: the Ki stood at 21.4 nM.

In the case of `CC(C)C(c1ncccn1)N(C)c1nc2c(c(C#N)nn2C(C)c2ccc(C(F)(F)F)nc2)c(=O)[nH]1` (single isomer, unassigned) [Example 23, 6-[methyl-(2-methyl-1-pyrimidin-2-yl-propyl)amino]-4-oxo-1-[1-[6-(trifluoromethyl)-3-pyridyl]ethyl]-5H-pyrazolo[3,4-d]pyrimidine-3-carbonitrile], the Ki was determined as 0.6 nM.

Take `CC(c1ccc(C(F)(F)F)nc1)n1nc(C#N)c2c(=O)[nH]c(N3CCC3c3ncccn3)nc21` (single isomer, unassigned) [Example 48, 4-oxo-6-(2-pyrimidin-2-ylazetidin-1-yl)-1-[1-[6-(trifluoromethyl)-3-pyridyl]ethyl]-5H-pyrazolo[3,4-d]pyrimidine-3-carbonitrile]: the Ki worked out at 17.4 nM.
